The source made the active and inactive calls. The rule behind the calls is not given here.
Key:
[1] = Oral bioavailability in Sprague-Dawley rat at 3 mg/kg measured upto 24 hrs by LC-MS/MS analysis; format: ADME, organism-based; conditions: in vivo
[2] = Cmax in cynomolgus monkey at 0.3 mg/kg, po measured upto 24 hrs by LC-MS/MS analysis; format: ADME, organism-based, Macaca fascicularis; conditions: in vivo
[3] = Cmax in C57BL6 mouse at 0.3 mg/kg, po measured upto 24 hrs by LC-MS/MS analysis; format: ADME, organism-based; conditions: in vivo
[4] = Oral bioavailability in C57BL6 mouse at 0.3 mg/kg measured upto 24 hrs by LC-MS/MS analysis; format: ADME, organism-based; conditions: in vivo
[5] = Half life in Sprague-Dawley rat at 1 mg/kg, iv measured upto 24 hrs by LC-MS/MS analysis; format: ADME, organism-based; conditions: in vivo
[6] = AUC (0 to infinity) in C57BL6 mouse at 0.3 mg/kg, po measured upto 24 hrs by LC-MS/MS analysis; format: ADME, organism-based; conditions: in vivo
Mus musculus [7] = experiment: Anti-inflammatory activity in ovalbumin-induced BALB/c mouse model assessed as reduction in eosinophil count in BALF at 6 mg/kg, po bid administered twice daily for 3 days; format: functional, organism-based; conditions: time 3.0 day
[8] = Microsomal stability in mouse liver microsome assessed as intrinsic clearance; format: ADME; conditions: liver microsomes, read-out: CLH
[9] = AUC (0 to infinity) in fasted Beagle dog at 30 mg/kg, po measured upto 24 hrs by LC-MS/MS analysis; format: ADME, organism-based, Canis lupus familiaris; conditions: in vivo
[10] = Half life in C57BL6 mouse at 0.3 mg/kg, iv measured upto 24 hrs by LC-MS/MS analysis; format: ADME, organism-based; conditions: in vivo
[11] = AUC (0 to infinity) in Beagle dog at 1 mg/kg, iv measured upto 24 hrs by LC-MS/MS analysis; format: ADME, organism-based, Canis lupus familiaris; conditions: in vivo
[12] = AUC (0 to infinity) in Beagle dog at 0.1 mg/kg, iv measured upto 24 hrs by LC-MS/MS analysis; format: ADME, organism-based, Canis lupus familiaris; conditions: in vivo
[13] = target: T1, Leukotriene C4 synthase (Mus musculus) (UniProt Q60860); experiment: In-vivo inhibition of LTC4S in mastoparan-induced C57BL/6 mouse model assessed as reduction in LTE4 level in skin at 10 mg/kg, po preincubated for 1 hr by LC-MS analysis; format: functional, organism-based
T1 sequence (whole entry): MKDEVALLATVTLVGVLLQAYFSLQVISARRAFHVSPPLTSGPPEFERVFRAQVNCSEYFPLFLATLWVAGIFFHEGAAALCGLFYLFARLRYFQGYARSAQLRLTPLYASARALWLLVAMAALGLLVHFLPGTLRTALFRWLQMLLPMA

[14] = Metabolic stability in rat Hepatocyte assessed as clearance; format: ADME, cell-based; conditions: hepatocytes
[15] = AUC (0 to infinity) in Sprague-Dawley rat at 1 mg/kg, iv measured upto 24 hrs by LC-MS/MS analysis; format: ADME, organism-based; conditions: in vivo
[16] = Half life in Beagle dog at 1 mg/kg, iv measured upto 24 hrs by LC-MS/MS analysis; format: ADME, organism-based, Canis lupus familiaris; conditions: in vivo
[17] = Genotoxicity in Salmonella typhimurium by Ames micronucleus test; format: toxicity; conditions: salmonella enterica subsp. enterica serovar typhimurium
[18] = Microsomal stability in human liver microsome assessed as intrinsic clearance; format: ADME; conditions: liver microsomes, read-out: CLH
[19] = Metabolic stability in mouse Hepatocyte assessed as clearance; format: ADME, cell-based; conditions: hepatocytes
[20] = AUC (0 to infinity) in Sprague-Dawley rat at 3 mg/kg, po by LC-MS/MS analysis; format: ADME, organism-based; conditions: in vivo
[21] = Half life in Sprague-Dawley rat at 3 mg/kg, po or 1 mg/kg, iv by LC-MS/MS analysis; format: ADME, organism-based; conditions: in vivo
[22] = Octanol/water distribution coefficient log D of the compound at pH 7.4 by shake flask based LC-MS/MS analysis; format: physicochemical
[23] = Genotoxicity in Salmonella typhimurium TA98 by Ames test; format: toxicity; conditions: salmonella enterica subsp. enterica serovar typhimurium
[24] = Oral bioavailability in Sprague-Dawley rat at 3 mg/kg by LC-MS/MS analysis; format: ADME, organism-based; conditions: in vivo
[25] = Clearance in Beagle dog at 1 mg/kg, iv measured upto 24 hrs by LC-MS/MS analysis; format: ADME, organism-based, Canis lupus familiaris; conditions: in vivo
[26] = Microsomal stability in dog liver microsome assessed as intrinsic clearance; format: ADME, Canis lupus familiaris; conditions: liver microsomes, read-out: CLH
[27] = AUC (0 to infinity) in Sprague-Dawley rat at 0.1 mg/kg, iv measured upto 24 hrs by LC-MS/MS analysis; format: ADME, organism-based; conditions: in vivo
[28] = AUC (0 to infinity) in C57BL6 mouse at 0.3 mg/kg, iv measured upto 24 hrs by LC-MS/MS analysis; format: ADME, organism-based; conditions: in vivo
[29] = Drug concentration in C57BL/6 mouse blood at 0.3 mg/kg, po; format: ADME, organism-based; conditions: in vivo, read-out: Ct
[30] = Microsomal stability in rat liver microsome assessed as intrinsic clearance; format: ADME; conditions: microsomes
[31] = Cmax in fasted Beagle dog at 30 mg/kg, po measured upto 24 hrs by LC-MS/MS analysis; format: ADME, organism-based, Canis lupus familiaris; conditions: in vivo
Mus musculus [32] = experiment: Anti-inflammatory activity in ovalbumin-induced po dosed BALB/c mouse model assessed as reduction in eosinophil recruitment in BALF administered twice daily for 3 days; format: functional, organism-based; conditions: dose 3-30 mg/kg, time 3.0 day
[33] = Volume of distribution at steady state in Sprague-Dawley rat at 3 mg/kg, po or 1 mg/kg, iv by LC-MS/MS analysis; format: ADME, organism-based; conditions: in vivo
[34] = Metabolic stability in human Hepatocyte assessed as clearance; format: ADME, cell-based; conditions: hepatocytes
[35] = Oral bioavailability in cynomolgus monkey at 0.3 mg/kg measured upto 24 hrs by LC-MS/MS analysis; format: ADME, organism-based, Macaca fascicularis; conditions: in vivo
[36] = AUC (0 to infinity) in Beagle dog at 30 mg/kg, po measured upto 24 hrs by LC-MS/MS analysis; format: ADME, organism-based, Canis lupus familiaris; conditions: in vivo
[37] = Volume of distribution at steady state in Beagle dog at 1 mg/kg, iv measured upto 24 hrs by LC-MS/MS analysis; format: ADME, organism-based, Canis lupus familiaris; conditions: in vivo, read-out: Vdss
[38] = Half life in cynomolgus monkey at 0.1 mg/kg, iv measured upto 24 hrs by LC-MS/MS analysis; format: ADME, organism-based, Macaca fascicularis; conditions: in vivo
[39] = AUC (0 to infinity) in cynomolgus monkey at 0.3 mg/kg, po measured upto 24 hrs by LC-MS/MS analysis; format: ADME, organism-based, Macaca fascicularis; conditions: in vivo
[40] = AUC (0 to infinity) in fed Beagle dog at 30 mg/kg, po measured upto 24 hrs by LC-MS/MS analysis; format: ADME, organism-based, Canis lupus familiaris; conditions: in vivo
Cytochrome P450 3A4 = Cytochrome P450 3A4 (Homo sapiens, UniProt P08684); experiment: Inhibition of CYP3A4 (unknown origin) at 25 uM relative to control; format: ADME
[41] = Apparent permeability across apical to basolateral side in dog MDCK-II cells; format: ADME, cell-based, Canis lupus familiaris
Cytochrome P450 2C9 = Cytochrome P450 2C9 (Homo sapiens, UniProt P11712); experiment: Inhibition of CYP2C9 (unknown origin) at 25 uM relative to control; format: ADME
[42] = Cmax in Sprague-Dawley rat at 3 mg/kg, po measured upto 24 hrs by LC-MS/MS analysis; format: ADME, organism-based; conditions: in vivo
[43] = Drug concentration in C57BL/6 mouse blood at 10 mg/kg, po; format: ADME, organism-based; conditions: in vivo, read-out: Ct
[44] = Drug concentration in C57BL/6 mouse blood at 1 mg/kg, po; format: ADME, organism-based; conditions: in vivo, read-out: Ct
[45] = Clearance in Sprague-Dawley rat at 1 mg/kg, iv measured upto 24 hrs by LC-MS/MS analysis; format: ADME, organism-based; conditions: in vivo

Chain of Cytochrome P450 2C9 (P11712 whole entry): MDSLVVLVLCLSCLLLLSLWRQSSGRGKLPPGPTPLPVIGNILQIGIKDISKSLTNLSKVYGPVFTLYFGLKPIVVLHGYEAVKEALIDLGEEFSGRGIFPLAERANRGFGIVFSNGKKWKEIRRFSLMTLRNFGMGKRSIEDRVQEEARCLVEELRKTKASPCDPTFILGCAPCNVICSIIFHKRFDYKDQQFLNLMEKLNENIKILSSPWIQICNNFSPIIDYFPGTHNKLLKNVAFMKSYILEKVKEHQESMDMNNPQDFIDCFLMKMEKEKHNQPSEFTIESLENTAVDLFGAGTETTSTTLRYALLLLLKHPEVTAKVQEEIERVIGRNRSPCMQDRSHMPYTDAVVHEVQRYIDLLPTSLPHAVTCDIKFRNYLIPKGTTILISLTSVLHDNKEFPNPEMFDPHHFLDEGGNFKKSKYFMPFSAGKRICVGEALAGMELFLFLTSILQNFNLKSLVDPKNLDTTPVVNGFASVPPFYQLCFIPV
Chain of Cytochrome P450 3A4 (P08684 whole entry): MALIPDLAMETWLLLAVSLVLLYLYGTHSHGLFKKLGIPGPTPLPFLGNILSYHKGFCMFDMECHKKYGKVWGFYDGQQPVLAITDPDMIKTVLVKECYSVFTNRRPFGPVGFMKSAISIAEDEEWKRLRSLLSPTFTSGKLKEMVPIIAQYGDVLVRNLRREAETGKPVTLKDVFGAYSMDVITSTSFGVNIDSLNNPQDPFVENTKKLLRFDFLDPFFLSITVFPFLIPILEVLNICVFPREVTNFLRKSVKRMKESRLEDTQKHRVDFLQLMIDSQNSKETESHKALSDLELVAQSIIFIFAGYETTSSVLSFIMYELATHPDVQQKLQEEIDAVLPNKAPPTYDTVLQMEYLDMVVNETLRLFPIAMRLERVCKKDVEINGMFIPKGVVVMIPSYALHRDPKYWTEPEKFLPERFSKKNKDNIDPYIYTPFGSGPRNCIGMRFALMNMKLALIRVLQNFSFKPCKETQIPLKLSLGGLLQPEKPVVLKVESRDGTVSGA

With `O=C1CCCC2(CCN(c3cc(OCC(F)(F)F)ncn3)CC2)N1c1ccc(F)c(F)c1` the bioavailability [1] was 55%, the Cmax [2] was 290 nM and the Cmax [3] was 383 nM. For the same compound, the bioavailability [4] was 32%, the half-life [5] was 2.9 h and the AUC(0-inf) [6] was 2.03 µM·h. The Activity (Mus musculus [7]) was “Active”, the microsomal CLint [8] was 36 µL/min/mg and the AUC(0-inf) [9] was 14 µM·h. For the same compound, the half-life [10] was 2.8 h, the AUC(0-inf) [11] was 2.56 µM·h and the AUC [12] was 1.16 µM·h. For the same compound, the inhibition [13] was 94%, the CLH [14] was 33 µL/min and the AUC(0-inf) [15] was 3.42 µM·h. For the same compound, the half-life [16] was 4.5 h, the Activity [17] was “Non-toxic” and the microsomal CLint [18] was 62 µL/min/mg. For the same compound, the CLH [19] was 33 µL/min, the AUC(0-inf) [20] was 8.11 µM·h and the half-life [21] was 2.8 h. The logD [22] was 3.4, the Activity [23] was “Non-toxic” and the bioavailability [24] was 75%. It also gave a clearance [25] of 14 mL/min/kg, a microsomal CLint [26] of 68 µL/min/mg and an AUC [27] of 3.13 µM·h. For the same compound, the AUC [28] was 6.233 µM·h, the concentration [29] was 56 nM and the CLH [30] was 20 µL/min. For the same compound, the Cmax [31] was 1390 nM, the Activity (Mus musculus [32]) was “Dose-dependent-effect” and the Vdss [33] was 2.3 L/kg. It also gave a CLH [34] of 4 µL/min, a bioavailability [35] of 26% and an AUC(0-inf) [36] of 3.17 µM·h. For the same compound, the Vd [37] was 3.5 L/kg, the half-life [38] was 2 h and the AUC(0-inf) [39] was 0.783 µM·h. The AUC(0-inf) [40] was 93.4 µM·h, the “inhibition (INH)” value (Cytochrome P450 3A4) was “Not_active” and the Papp A→B [41] was 23 ×10⁻⁶ cm/s. The “inhibition (INH)” value (Cytochrome P450 2C9) was “Not_active”, the Cmax [42] was 194 nM and the concentration [43] was 2910 nM. For the same compound, the concentration [44] was 288 nM and the clearance [45] was 11 mL/min/kg.
